ChEMBL document CHEMBL1765075, “Discovery and structure-activity relationship of 3-aminopyrid-2-ones as potent and selective interleukin-2 inducible T-cell kinase (Itk) inhibitors” (J Med Chem, 2011)

Assays:
[1] = Inhibition of PDK
[2] = target: Fibroblast growth factor receptor 4 (Homo sapiens, UniProt P22455); test: Inhibition of FGFR4
[3] = target: Tyrosine-protein kinase Yes (Homo sapiens, UniProt P07947); test: Inhibition of YES
[4] = target: Proto-oncogene tyrosine-protein kinase ROS (Homo sapiens, UniProt P08922); test: Inhibition of ROS
[5] = target: Indoleamine 2,3-dioxygenase 1 (Homo sapiens, UniProt P14902); test: Inhibition of IDO1
[6] = target: Serine/threonine-protein kinase pim-1 (Homo sapiens, UniProt P11309); test: Inhibition of PIM1
[7] = target: T1, Tyrosine-protein kinase ITK/TSK (Homo sapiens, UniProt Q08881); test: Inhibition of Itk after 40 mins by radiometric phosphate incorporation assay
T1 sequence (Q08881 whole entry): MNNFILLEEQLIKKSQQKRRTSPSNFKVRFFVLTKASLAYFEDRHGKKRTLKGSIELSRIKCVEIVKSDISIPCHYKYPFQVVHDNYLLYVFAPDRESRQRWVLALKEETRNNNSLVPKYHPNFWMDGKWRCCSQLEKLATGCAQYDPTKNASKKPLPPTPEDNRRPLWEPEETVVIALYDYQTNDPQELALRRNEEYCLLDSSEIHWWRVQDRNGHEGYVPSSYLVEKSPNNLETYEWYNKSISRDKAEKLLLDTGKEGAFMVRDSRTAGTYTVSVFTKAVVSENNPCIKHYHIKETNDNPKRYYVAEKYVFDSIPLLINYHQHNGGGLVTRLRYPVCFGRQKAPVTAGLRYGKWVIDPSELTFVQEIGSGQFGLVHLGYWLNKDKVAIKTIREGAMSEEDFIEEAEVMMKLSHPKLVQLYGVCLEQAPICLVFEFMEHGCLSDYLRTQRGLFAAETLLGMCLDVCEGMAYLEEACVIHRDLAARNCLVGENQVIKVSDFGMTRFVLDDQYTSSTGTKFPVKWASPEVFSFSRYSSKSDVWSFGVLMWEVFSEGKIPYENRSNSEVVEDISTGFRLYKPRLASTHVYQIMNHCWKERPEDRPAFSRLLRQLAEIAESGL

[8] = target: Ribosomal protein S6 kinase alpha-5 (Homo sapiens, UniProt O75582); test: Inhibition of MSK1
[9] = Permeability across basolateral to apical side of human Caco2 cells after 120 mins by LC-MS/MS analysis; format: ADME, cell-based; settings: Caco-2, read-out: permeability
[10] = target: RAF proto-oncogene serine/threonine-protein kinase (Homo sapiens, UniProt P04049); test: Inhibition of C-RAF
[11] = target: Tyrosine-protein kinase Fer (Homo sapiens, UniProt P16591); test: Inhibition of FER
[12] = target: T2, Receptor-type tyrosine-protein kinase FLT3 (Homo sapiens, UniProt P36888); test: Inhibition of FLT3
T2 sequence (P36888 whole entry): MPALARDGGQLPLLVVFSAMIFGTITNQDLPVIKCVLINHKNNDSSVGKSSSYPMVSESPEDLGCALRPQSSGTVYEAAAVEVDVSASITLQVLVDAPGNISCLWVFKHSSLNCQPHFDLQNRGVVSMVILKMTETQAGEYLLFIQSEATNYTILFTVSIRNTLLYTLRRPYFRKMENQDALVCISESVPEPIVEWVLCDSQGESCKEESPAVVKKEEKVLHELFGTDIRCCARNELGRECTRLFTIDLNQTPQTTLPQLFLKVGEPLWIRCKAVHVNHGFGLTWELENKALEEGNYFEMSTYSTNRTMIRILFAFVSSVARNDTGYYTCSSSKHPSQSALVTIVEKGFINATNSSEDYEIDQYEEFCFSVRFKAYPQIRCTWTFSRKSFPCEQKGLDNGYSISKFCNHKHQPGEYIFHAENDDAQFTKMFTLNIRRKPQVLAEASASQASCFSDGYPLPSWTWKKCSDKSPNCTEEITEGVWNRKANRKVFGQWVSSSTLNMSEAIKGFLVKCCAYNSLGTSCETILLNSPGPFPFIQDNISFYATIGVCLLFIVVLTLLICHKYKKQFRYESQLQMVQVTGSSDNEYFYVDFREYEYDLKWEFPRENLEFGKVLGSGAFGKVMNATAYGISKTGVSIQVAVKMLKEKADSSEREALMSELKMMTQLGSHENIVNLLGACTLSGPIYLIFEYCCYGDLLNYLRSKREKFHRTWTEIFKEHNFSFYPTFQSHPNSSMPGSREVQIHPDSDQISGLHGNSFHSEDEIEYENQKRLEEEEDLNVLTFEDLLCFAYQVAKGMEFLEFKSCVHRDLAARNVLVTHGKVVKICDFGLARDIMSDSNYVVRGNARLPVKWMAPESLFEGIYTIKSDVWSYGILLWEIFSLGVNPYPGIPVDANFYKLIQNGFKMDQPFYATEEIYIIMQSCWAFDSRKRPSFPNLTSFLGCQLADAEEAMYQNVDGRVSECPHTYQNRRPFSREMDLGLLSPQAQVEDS

Focal adhesion kinase 1 = Focal adhesion kinase 1 (Homo sapiens, UniProt Q05397); test: Inhibition of FAK
[13] = Inhibition of RLK
[14] = target: Mast/stem cell growth factor receptor Kit (Homo sapiens, UniProt P10721); test: Inhibition of KIT
[15] = target: Mitogen-activated protein kinase 11 (Homo sapiens, UniProt Q15759); test: Inhibition of P38beta
[16] = target: Tyrosine-protein kinase Fyn (Homo sapiens, UniProt P06241); test: Inhibition of FYN
[17] = target: Mitogen-activated protein kinase 3 (Homo sapiens, UniProt P27361); test: Inhibition of ERK1
[18] = target: Mitogen-activated protein kinase 14 (Homo sapiens, UniProt Q16539); test: Inhibition of P38alpha
[19] = target: Serine/threonine-protein kinase Sgk1 (Homo sapiens, UniProt O00141); test: Inhibition of SGK1
[20] = target: Dual specificity mitogen-activated protein kinase kinase 1 (Homo sapiens, UniProt Q02750); test: Inhibition of MEK1
[21] = Octanol-phosphate buffer partition coefficient, log D of the compound at pH 7.4 by HPLC analysis; format: physicochemical
[22] = target: T2, Receptor-type tyrosine-protein kinase FLT3; test: Inhibition of Flt3 after 20 mins by radiometric phosphate incorporation assay
[23] = Permeability across apical to basolateral side of human Caco2 cells after 120 mins by LC-MS/MS analysis; format: ADME, cell-based; settings: Caco-2, read-out: permeability
[24] = target: Calcium/calmodulin-dependent protein kinase type 1D (Homo sapiens, UniProt Q8IU85); test: Inhibition of CAMK1D
[25] = target: Tyrosine-protein kinase HCK (Homo sapiens, UniProt P08631); test: Inhibition of HCK
[26] = target: Vascular endothelial growth factor receptor 2 (Homo sapiens, UniProt P35968); test: Inhibition of KDR
[27] = target: Calcium/calmodulin-dependent protein kinase type IV (Homo sapiens, UniProt Q16566); test: Inhibition of CAMK4
Aurora kinase A = Aurora kinase A (Homo sapiens, UniProt O14965); test: Inhibition of AURORA A
Ceramide kinase = Ceramide kinase (Homo sapiens, UniProt Q8TCT0); test: Inhibition of CERK
Chain of Ceramide kinase (Q8TCT0 whole entry): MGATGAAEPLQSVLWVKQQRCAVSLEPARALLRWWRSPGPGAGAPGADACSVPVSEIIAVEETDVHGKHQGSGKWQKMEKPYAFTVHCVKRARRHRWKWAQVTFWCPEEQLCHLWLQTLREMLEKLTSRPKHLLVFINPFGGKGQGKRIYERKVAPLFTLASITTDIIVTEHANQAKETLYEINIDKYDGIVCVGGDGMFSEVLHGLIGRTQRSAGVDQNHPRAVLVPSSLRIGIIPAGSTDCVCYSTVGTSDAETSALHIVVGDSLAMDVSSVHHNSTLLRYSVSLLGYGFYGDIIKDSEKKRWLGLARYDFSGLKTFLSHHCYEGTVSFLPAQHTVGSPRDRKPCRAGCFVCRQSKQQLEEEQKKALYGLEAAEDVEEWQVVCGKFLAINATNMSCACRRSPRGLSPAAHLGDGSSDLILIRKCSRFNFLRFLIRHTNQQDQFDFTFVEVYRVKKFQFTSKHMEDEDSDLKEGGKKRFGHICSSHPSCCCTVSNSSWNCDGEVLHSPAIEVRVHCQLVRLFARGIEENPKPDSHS

Chain of Vascular endothelial growth factor receptor 2 (P35968 whole entry): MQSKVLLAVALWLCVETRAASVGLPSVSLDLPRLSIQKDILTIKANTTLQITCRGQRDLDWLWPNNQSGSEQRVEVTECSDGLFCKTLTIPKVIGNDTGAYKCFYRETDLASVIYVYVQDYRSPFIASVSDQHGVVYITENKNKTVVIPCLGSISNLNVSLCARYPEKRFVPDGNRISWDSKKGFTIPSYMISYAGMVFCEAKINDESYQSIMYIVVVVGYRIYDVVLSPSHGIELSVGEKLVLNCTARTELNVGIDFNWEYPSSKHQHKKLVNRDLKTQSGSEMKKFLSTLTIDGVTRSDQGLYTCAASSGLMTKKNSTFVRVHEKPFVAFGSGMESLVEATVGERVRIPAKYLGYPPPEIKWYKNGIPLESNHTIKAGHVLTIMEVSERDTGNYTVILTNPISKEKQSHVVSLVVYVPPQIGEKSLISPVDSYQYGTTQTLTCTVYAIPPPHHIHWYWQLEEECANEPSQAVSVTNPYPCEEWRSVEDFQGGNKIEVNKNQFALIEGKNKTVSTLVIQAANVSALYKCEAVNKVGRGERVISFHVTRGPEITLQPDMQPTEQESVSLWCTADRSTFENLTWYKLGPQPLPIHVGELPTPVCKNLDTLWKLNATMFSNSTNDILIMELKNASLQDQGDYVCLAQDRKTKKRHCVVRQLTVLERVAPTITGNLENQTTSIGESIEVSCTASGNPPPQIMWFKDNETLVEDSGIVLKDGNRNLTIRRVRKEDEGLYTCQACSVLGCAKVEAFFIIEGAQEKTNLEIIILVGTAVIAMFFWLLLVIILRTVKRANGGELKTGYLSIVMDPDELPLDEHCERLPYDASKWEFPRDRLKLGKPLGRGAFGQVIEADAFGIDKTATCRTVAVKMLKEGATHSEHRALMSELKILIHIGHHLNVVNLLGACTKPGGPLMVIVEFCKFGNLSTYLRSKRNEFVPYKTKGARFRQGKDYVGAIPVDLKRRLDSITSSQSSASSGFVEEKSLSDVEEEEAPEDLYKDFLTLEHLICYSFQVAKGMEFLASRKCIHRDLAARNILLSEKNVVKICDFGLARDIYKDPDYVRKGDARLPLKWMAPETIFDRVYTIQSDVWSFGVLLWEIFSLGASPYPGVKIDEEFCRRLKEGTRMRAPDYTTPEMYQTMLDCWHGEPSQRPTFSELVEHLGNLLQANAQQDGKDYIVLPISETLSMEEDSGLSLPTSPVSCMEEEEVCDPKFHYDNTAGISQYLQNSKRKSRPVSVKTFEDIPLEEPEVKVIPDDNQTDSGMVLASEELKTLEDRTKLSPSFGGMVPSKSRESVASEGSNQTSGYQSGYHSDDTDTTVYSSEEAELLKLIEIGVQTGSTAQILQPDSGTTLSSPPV
Chain of Fibroblast growth factor receptor 4 (P22455 whole entry): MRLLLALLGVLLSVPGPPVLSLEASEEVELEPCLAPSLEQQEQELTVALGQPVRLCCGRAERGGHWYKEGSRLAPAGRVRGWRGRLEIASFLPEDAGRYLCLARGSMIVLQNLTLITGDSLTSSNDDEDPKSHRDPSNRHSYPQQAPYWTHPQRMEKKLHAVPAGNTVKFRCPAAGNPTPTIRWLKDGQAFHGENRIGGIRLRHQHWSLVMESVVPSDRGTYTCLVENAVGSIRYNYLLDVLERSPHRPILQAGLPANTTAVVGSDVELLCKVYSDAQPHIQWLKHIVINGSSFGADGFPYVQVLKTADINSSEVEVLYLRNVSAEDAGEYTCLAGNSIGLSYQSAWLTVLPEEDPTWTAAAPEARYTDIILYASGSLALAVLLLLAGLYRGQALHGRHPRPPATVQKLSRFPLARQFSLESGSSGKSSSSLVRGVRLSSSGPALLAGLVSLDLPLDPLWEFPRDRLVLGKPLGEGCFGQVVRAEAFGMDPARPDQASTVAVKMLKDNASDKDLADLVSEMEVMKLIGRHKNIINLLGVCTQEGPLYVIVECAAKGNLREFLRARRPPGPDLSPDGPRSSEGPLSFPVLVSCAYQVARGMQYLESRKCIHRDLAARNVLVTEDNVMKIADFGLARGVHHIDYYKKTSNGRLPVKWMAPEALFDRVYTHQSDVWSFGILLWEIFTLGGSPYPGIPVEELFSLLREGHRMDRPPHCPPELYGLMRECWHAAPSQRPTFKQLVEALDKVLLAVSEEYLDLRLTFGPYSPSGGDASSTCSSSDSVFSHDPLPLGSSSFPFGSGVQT
Chain of Mast/stem cell growth factor receptor Kit (P10721 whole entry): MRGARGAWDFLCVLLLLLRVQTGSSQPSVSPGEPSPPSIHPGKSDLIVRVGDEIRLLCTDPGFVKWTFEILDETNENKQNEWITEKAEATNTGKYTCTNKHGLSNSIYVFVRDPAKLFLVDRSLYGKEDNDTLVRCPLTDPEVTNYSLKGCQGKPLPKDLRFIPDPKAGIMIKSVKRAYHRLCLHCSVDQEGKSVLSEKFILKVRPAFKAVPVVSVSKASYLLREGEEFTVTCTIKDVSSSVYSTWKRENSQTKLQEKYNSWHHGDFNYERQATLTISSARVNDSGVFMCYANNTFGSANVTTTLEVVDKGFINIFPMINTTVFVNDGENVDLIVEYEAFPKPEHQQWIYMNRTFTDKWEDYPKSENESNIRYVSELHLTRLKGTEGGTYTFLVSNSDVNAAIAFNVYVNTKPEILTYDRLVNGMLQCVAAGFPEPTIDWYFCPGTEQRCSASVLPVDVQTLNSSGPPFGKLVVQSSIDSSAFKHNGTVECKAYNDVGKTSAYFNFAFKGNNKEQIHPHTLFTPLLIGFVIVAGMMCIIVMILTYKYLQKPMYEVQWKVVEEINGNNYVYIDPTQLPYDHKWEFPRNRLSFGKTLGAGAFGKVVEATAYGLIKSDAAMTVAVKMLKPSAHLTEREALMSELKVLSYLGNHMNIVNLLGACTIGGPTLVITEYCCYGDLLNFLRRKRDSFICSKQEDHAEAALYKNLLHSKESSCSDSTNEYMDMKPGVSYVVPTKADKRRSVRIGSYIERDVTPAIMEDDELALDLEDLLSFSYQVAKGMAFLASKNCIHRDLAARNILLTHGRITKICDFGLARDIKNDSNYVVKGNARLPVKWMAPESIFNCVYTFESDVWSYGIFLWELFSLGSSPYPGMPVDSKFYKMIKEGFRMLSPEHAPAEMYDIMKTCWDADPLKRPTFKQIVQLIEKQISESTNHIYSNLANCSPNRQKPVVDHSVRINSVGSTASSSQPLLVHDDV
Chain of Mitogen-activated protein kinase 11 (Q15759 whole entry): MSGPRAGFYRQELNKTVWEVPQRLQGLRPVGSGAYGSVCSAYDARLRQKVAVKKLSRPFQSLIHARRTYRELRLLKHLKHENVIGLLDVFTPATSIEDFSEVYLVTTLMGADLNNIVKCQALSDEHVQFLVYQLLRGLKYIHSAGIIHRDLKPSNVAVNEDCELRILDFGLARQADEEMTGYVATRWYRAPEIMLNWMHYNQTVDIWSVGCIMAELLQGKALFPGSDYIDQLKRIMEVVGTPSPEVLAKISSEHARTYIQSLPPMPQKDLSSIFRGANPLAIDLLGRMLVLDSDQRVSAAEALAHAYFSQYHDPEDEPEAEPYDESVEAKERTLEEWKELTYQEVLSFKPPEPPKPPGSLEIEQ
Chain of Focal adhesion kinase 1 (Q05397 whole entry): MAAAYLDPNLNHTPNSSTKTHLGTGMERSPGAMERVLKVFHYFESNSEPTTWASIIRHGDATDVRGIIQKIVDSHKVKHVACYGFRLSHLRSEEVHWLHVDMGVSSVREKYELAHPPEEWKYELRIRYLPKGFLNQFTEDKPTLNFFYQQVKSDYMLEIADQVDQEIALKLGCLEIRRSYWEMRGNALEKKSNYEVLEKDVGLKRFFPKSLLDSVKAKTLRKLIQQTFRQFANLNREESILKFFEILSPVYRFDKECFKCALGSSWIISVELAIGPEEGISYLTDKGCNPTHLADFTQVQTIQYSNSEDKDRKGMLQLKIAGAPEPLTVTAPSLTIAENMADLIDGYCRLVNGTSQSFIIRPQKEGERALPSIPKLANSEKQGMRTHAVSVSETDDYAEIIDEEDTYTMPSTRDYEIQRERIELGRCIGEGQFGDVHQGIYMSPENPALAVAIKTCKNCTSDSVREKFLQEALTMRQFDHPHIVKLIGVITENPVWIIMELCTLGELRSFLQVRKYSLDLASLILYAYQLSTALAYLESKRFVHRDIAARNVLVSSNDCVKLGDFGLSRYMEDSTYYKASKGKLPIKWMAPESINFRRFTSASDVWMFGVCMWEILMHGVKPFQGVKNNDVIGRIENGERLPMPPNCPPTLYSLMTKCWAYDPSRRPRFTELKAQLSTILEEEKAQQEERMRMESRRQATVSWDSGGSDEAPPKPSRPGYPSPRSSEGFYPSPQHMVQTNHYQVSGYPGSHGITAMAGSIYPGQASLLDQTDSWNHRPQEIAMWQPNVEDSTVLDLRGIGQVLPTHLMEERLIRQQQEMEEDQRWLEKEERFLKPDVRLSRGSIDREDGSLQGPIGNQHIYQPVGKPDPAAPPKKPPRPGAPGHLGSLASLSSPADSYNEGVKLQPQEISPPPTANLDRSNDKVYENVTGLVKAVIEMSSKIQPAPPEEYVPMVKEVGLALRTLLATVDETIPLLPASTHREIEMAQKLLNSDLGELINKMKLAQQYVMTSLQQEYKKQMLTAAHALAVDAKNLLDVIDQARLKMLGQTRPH

Ki [1]: > 1000 nM | Ki [2]: > 1000 nM | Ki [3]: > 1000 nM | Ki [4]: > 1000 nM | Ki [5]: > 1000 nM | Ki [6]: > 1000 nM | Ki [7]: 7 nM | Ki [8]: > 1000 nM | Papp B→A at 2 h [9]: 32.4 ×10⁻⁶ cm/s | Ki [10]: > 2000 nM | Ki [11]: > 1000 nM | Ki [12]: 20 nM | Ki (Focal adhesion kinase 1): > 1000 nM | Ki [13]: > 2000 nM | Ki [14]: 200 nM | Ki [15]: > 1000 nM | Ki [16]: > 1000 nM | Ki [17]: > 2000 nM | Ki [18]: > 1000 nM | Ki [19]: > 1000 nM | Ki [20]: > 1000 nM | logD [21]: 2.8 | Ki [22]: 20 nM | Papp A→B at 2 h [23]: 10.8 ×10⁻⁶ cm/s | Ki [24]: > 1000 nM | Ki [25]: > 1000 nM | Ki [26]: 430 nM | Ki [27]: > 1000 nM | Ki (Aurora kinase A): > 1000 nM | Ki (Ceramide kinase): > 1000 nM
Compound: CNc1cncc(-c2c[nH]c(=O)c(NC(=O)c3ccc(N4CCC[C@H]4CN4CCCC4)cc3)c2)n1
